The values below come from patent EP0006772A1, “Thieno and furopyridone derivatives, process for their preparation and medicinal preparations containing them” (OMNIUM FINANCIER AQUITAINE POUR L'HYGIENE ET LA SANTE - …, priority 1978, dated 1980).

Assay [1] relates to agrégation plaquettaire au collagène. Put plainly: Collagen-induced platelet aggregation in plasma of orally treated rats (ex vivo). The arrangement: species or system rats de souche Wistar. Conditions: Rattus norvegicus, 100 mg/kg oral, 3 hours after treatment, versus control, collagen (bovine tendon extract), read-out: Pourcentage d'inhibition Collagène. As to the method: (§1) Chez des rats de souche Wistar, on effectue un prélèvement sanguin dans la veine jugulaire. A partir de ce sang citraté et après centrifugation, on reconstitue un plasma contenant 600 000 ± 20 000 plaquettes par mm^3, qui servira dans toutes les mesures d'agrégation.
(§2) On place 0,4 ml de plasma dans un tube siliconé pourvu d'une barre aimantée elle-même siliconée. Le tube est introduit dans un agrégomètre couplé à un appareil permettant d'enregistrer les variations de densité optique. Lorsque la transmission de la lumière a atteint une valeur stable, on introduit dans le tube 0,5 ml d'une solution contenant 10 µM d'A.D.P. (Adénosine-Di Phosphate).
(§3) L'agrégation des plaquettes provoque alors une augmentation de la transmission lumineuse suivie d'une diminution consécutive à la phase de désagrégation.
(§4) La variation maximale de densité optique ainsi déterminée caractérise l'intensité de l'agrégation.
La solution d'A.D.P. est remplacée par une solution de collagène (extrait de tendons bovins).
(§5) Différents lots de 20 rats sont uiilisés, chaque lot recevant un dérivé à tester par la vcie orale, à la dose de 100 mg/kg de poids corporel. Les résultats obtenus au cours de ces 2 essais sont rapportés dans le Tableau I suivant qui indique le pourcentage d'inhibition de l'agrégation plaquettaire obtenu, par rapport au témoin, 3 heures après le traitement par le médicament de l'invention, dans le test de l'A.D.P. et au collagène.

Assay [2] concerns agrégation plaquettaire à l'A.D.P. Nature of the assay: ADP-induced platelet aggregation in plasma of orally treated rats (ex vivo). Set-up: species or system rats de souche Wistar. Conditions: Rattus norvegicus, 100 mg/kg oral, 3 hours after treatment, versus control, 10 µM A.D.P., read-out: Pourcentage d'inhibition A.D.P. As to the method: as §1, §2, §3, §4, §5
Assay [3] relates to oedème localisé provoqué par la carragénine. Nature of the assay: Carrageenan-induced localised paw oedema. It is filed as in vivo. Conditions: rat, 100 mg/kg oral (1 h before, at injection, 1 h and 2.5 h after). As to the method:
Une solution de carragénine (0,1 ml) à 1 % est injectée dans les fléchisseurs métatarsiens de la patte postérieure droite du rat au temps O. Les animaux du lot traité reçoivent en outre, par la voie orale, 100 mg par kg du dérivé à tester respectivement 1 heure avant, en même temps que l'injection de l'agent phlogogène, puis 1 heure et 2 heures et demi après. Les mesures qui sont effectuées à l'aide du micromètre de ROCH aux temps 0, 1 heure, 2 heures, 3 heures et 5 heures après l'administration de la carragénine permettent de déterminer, en fonction du temps, le pourcentage d'activité anti-inflammatoire par comparaison avec le lot témoin.
Background: In the carrageenan paw model, swelling and tenderness develop within hours.

For assay [4], the system named is oedème généralisé à l'ovalbumine. Nature of the assay: Ovalbumin-induced generalised oedema. In kind it is in vivo. Conditions: po, rat, 100 mg/kg per os 1 h before and together with ovalbumin. As to the method: Une injection intrapéritonéale simultanée de 1 ml d'ovalbumine et de 0,5 ml d'une solution aqueuse de bleu Evans à 1 % est effectuée sur le rat. D'autre part, on administre per os aux animaux du lot traité 100 mg/kg du dérivé à tester 1 heure avant et en même temps que l'ovalbumine. L'intensité du phénomène ainsi provoqué est notée par un chiffre allant de 1 à 5 suivant la progression du syndrome inflammatoire. On détermine ainsi la moyenne de l'intensité oedémateuse et le pourcentage de diminution de la réaction oedémateuse par rapport au témoin, en fonction du temps.
Les pourcentages d'activité anti-inflammatoire obtenus à la 2ème heure et 3ème heure après l'injection d'ovalbumine sont consignés dans le Tableau III suivant.

[5] abbreviates: 1 h after carrageenan, read-out: pourcentage d'activité anti-inflammatoire Ière heure.
The mark [6] stands for this setting: 2 h after carrageenan, read-out: pourcentage d'activité anti-inflammatoire 2ème heure.
The mark [7] stands for this setting: 3 h after carrageenan, read-out: pourcentage d'activité anti-inflammatoire 3ème heure.
The mark [8] stands for this setting: 5 h after carrageenan, read-out: pourcentage d'activité anti-inflammatoire 5ème heure.
Where [9] appears, read: 2 h after ovalbumin injection, read-out: Pourcentage d'activité anti-inflammatoire 2ème heure.
The mark [10] stands for this setting: 3 h after ovalbumin injection, read-out: Pourcentage d'activité anti-inflammatoire 3ème heure.

The structures appear in SMILES notation. Read-outs that look alike come from different tables or passages of the source.

Broadly, the inhibition is the percentage by which the read-out fell short of the control. `O=c1[nH]c(-c2ccccc2)cc2ccsc12` [dérivé 15, Phényl-5 thiéno(2,3-c)pyridone-7]: the inhibition at 100 mg/kg in assay [1] came to 90.8%; in assay [2], 62.5%. Besides, the inhibition in vivo at 100 mg/kg in assay [3] (setting [5]) was found to be 39%; in assay [3] (setting [6]), 43%; in assay [3] (setting [7]), 48%; in assay [3] (setting [8]) it was 51%; in assay [4] (setting [9]), 47%; in assay [4] (setting [10]), 53%.

On to `O=c1[nH]c(-c2ccccc2Cl)cc2ccsc12` [dérivé 16, o-chlorophényl-5 thiéno(2,3-c)pyridone-7], for which the inhibition at 100 mg/kg in assay [1] was 90.2%; in assay [2], 60.1%. The inhibition in vivo at 100 mg/kg in assay [3] (setting [5]) is 37%; in assay [3] (setting [6]) it was 41%; in assay [3] (setting [7]), 47%; in assay [3] (setting [8]), 50%; in assay [4] (setting [9]), 46%; in assay [4] (setting [10]) it was 54%.

Consider `O=c1[nH]c(-c2cccnc2)cc2sccc12` [dérivé 14, (Pyridyl-3)-6 thiéno(3,2-c)pyridone-4], for which the inhibition at 100 mg/kg in assay [1] stood at 91.2%; in assay [2], 60.8%. Further, the inhibition in vivo at 100 mg/kg amounted to 38% in assay [3] (setting [5]); 41% in assay [3] (setting [6]); 47% in assay [3] (setting [7]); 50% in assay [3] (setting [8]); 48% in assay [4] (setting [9]); 54% in assay [4] (setting [10]).

Turning to `O=c1[nH]c(-c2ccccc2[N+](=O)[O-])cc2sccc12` [dérivé 9, o-nitrophényl-6 thiéno(3,2-c)pyridone-4], the inhibition at 100 mg/kg in assay [1] was 90.8%; in assay [2] it was 59.1%. Further, the inhibition in vivo at 100 mg/kg in assay [3] (setting [5]) was determined as 38%; in assay [3] (setting [6]), 41%; in assay [3] (setting [7]), 46%; in assay [3] (setting [8]), 50%; in assay [4] (setting [9]) it was 46%; in assay [4] (setting [10]), 52%.

Consider `O=c1[nH]c(-c2ccccc2)cc2occc12` [dérivé 17, Phényl-6 furo(3,2-c)pyridone-4], for which the inhibition at 100 mg/kg in assay [1] is 90.4%; in assay [2] it was 59.8%. The inhibition in vivo at 100 mg/kg in assay [3] (setting [5]) was 41%; in assay [3] (setting [6]), 44%; in assay [3] (setting [7]) it was 49%; in assay [3] (setting [8]), 51%; in assay [4] (setting [9]), 45%; in assay [4] (setting [10]) it was 51%.

As to `Cc1cc2c(=O)[nH]c(-c3ccccc3)cc2s1` [dérivé 13, Méthyl-2 phényl-6 thiéno(3,2-c)pyridone-4], the figures for the inhibition at 100 mg/kg in assay [1] and in assay [2] were 90.5% and 61.5%, respectively. Besides, the inhibition in vivo at 100 mg/kg in assay [3] (setting [5]) was 38%; in assay [3] (setting [6]), 42%; in assay [3] (setting [7]), 47%; in assay [3] (setting [8]), 50%; in assay [4] (setting [9]) it was 46%; in assay [4] (setting [10]) it was 53%.

In the case of `O=c1[nH]c(-c2ccccc2)cc2sc(Cl)cc12` [dérivé 12, Chloro-2 phényl-6 thiéno(3,2-c)pyridone-4], the inhibition at 100 mg/kg in assay [1] amounted to 91.4%; in assay [2] it was 60.6%. Also, the inhibition in vivo at 100 mg/kg amounted to 36% in assay [3] (setting [5]); 40% in assay [3] (setting [6]); 46% in assay [3] (setting [7]); 50% in assay [3] (setting [8]); 45% in assay [4] (setting [9]); 52% in assay [4] (setting [10]).

As for `O=c1[nH]c(-c2ccc(F)cc2)cc2sccc12` [dérivé 2, p-fluorophényl-6 thiéno(3,2-c)pyridone-4], the values for the inhibition at 100 mg/kg in assay [1] and in assay [2] were 91.7% and 60.5%, respectively. Moreover, the inhibition in vivo at 100 mg/kg is 37% in assay [3] (setting [5]); 41% in assay [3] (setting [6]); 46% in assay [3] (setting [7]); 50% in assay [3] (setting [8]); 48% in assay [4] (setting [9]); 54% in assay [4] (setting [10]).
